Results published in patent US20240425500A1 (priority 2021, published 2024).

System: Pythium ultimum
Assay: Pythium ultimum / liquid culture (seedling damping off)
Type: cell-based
Details: Globisporangium ultimum, liquid culture in PDB, 24 °C, 2-3 days after application, read-out: control of Pythium ultimum (inhibition of growth, photometric) compared to untreated control
Protocol: Pythium ultimum/Liquid Culture (Seedling Damping Off):
Mycelia fragments and oospores of a newly grown liquid culture of the fungus are directly mixed into nutrient broth (PDB potato dextrose broth). After placing a (DMSO) solution of test compound into a microtiter plate (96-well format), the nutrient broth containing the fungal mycelia/spore mixture is added. The test plates are incubated at 24° C. and the inhibition of growth is determined photometrically 2-3 days after application.

Structure (SMILES) | inhibition at 20 ppm [%]
CCN(C(=O)c1ccc2ncc(-c3ccc(NC(=O)OC)nc3)n2c1)c1cccc(F)c1 [Compound 145, methyl N-[5-[6-[ethyl-(3-fluorophenyl)carbamoyl]imidazo[1,2-a]pyridin-3-yl]-2-pyridyl]carbamate] | ≥ 80
COC(=O)Nc1ccc(-c2cnc3ccc(C(=O)N(C)c4ccc(C)c(C)c4)cn23)cc1 [Compound 13, methyl N-[4-[6-[(3,4-dimethylphenyl)-methyl-carbamoyl]imidazo[1,2-a]pyridin-3-yl]phenyl]carbamate] | ≥ 80
CCOC(=O)c1cccc(N(CC)C(=O)c2ccc3ncc(-c4ccc(NC(=O)OC)nc4)n3c2)c1 [Compound 122, ethyl 3-[ethyl-[3-[6-(methoxycarbonyl-amino)-3-pyridyl]imidazo[1,2-a]pyridine-6-carbonyl]amino]benzoate] | ≥ 80
COC(=O)Nc1ccc(-c2cnc3ccc(C(=O)N(CC#N)c4ccccc4)cn23)cn1 [Compound 108, methyl N-[5-[6-[cyanomethyl(phenyl)carbamoyl]imidazo[1,2-a]pyridin-3-yl]-2-pyridyl] carbamate] | ≥ 80
COC(=O)Nc1ccc(-c2cnc3ccc(C(=O)N(C)c4ccncc4)cn23)cc1 [Compound 24, methyl N-[4-[6-[methyl(4-pyridyl)carbamoyl]imidazo [1,2-a]pyridin-3-yl]phenyl]carbamate] | ≥ 80
COC(=O)Nc1ccc(-c2cnc3ccc(C(=O)N(CC#N)c4ccc(C)cc4)cn23)cn1 [Compound 143, methyl N-[5-[6-[cyanomethyl(p-tolyl)carbamoyl]imidazo [1,2-a]pyridin-3-yl]-2-pyridyl]carbamate] | ≥ 80
COC(=O)Nc1ccc(-c2cnc3ccc(C(=O)N(C)c4cccc(C5CC5)c4)cn23)cn1 [Compound 72, methyl N-[5-[6-[(3-cyclopropylphenyl)-methyl-carbamoyl]imidazo[1,2-a]pyridin-3-yl]-2-pyridyl]carbamate] | ≥ 80
CCOC(=O)CN(C(=O)c1ccc2ncc(-c3ccc(NC(=O)OC)nc3)n2c1)c1ccc(F)cc1 [Compound 150, ethyl 2-(4-fluoro-N-[3-[6-(methoxy-carbonylamino)-3-pyridyl]imidazo[1,2-a]pyridine-6-carbonyl]anilino)acetate] | ≥ 80
COC(=O)Nc1ccc(-c2cnc3ccc(C(=O)N(C)c4ccc(Br)cc4)cn23)cn1 [Compound 68, methyl N-[5-[6-[(4-bromophenyl)-methyl-carbamoyl]imidazo[1,2-a]pyridin-3-yl]-2-pyridyl]carbamate] | ≥ 80
COC(=O)Nc1ccc(-c2cnc3ccc(C(=O)N(C)c4cccc(Br)c4)cn23)cn1 [Compound 69, methyl N-[5-[6-[(3-bromophenyl)-methyl-carbamoyl]imidazo[1,2-a]pyridin-3-yl]-2-pyridyl]carbamate] | ≥ 80
CCN(C(=O)c1ccc2ncc(-c3ccc(NC(=O)OC)nc3)n2c1)c1cccc(C#N)c1 [Compound 141, methyl N-[5-[6-[(3-cyanophenyl)-ethyl-carbamoyl]imidazo[1,2-a]pyridin-3-yl]-2-pyridyl]carbamate] | ≥ 80
COC(=O)Nc1ccc(-c2cnc3ccc(C(=O)N(C)c4ccc(C)cc4)cn23)cc1 [Compound 16, methyl N-[4-[6-[methyl (p-tolyl)carbamoyl]imidazo [1,2-a]pyridin-3-yl]phenyl]carbamate] | ≥ 80
COC(=O)Nc1ccc(-c2cnc3ccc(C(=O)N(CCO)c4ccccc4)cn23)cn1 [Compound 112, methyl N-[5-[6-[2-hydroxyethyl(phenyl)carbamoyl]imidazo [1,2-a]pyridin-3-yl]-2-pyridyl]carbamate] | ≥ 80
COC(=O)Nc1ccc(-c2cnc3ccc(C(=O)N(C)c4cc(C)cc(OC)c4)cn23)cn1 [Compound 59, methyl N-[5-[6-[(3-methoxy-5-methyl-phenyl)-methyl-carbamoyl]imidazo[1,2-a]pyridin-3-yl]-2-pyridyl]carbamate] | ≥ 80
COC(=O)Nc1ccc(-c2cnc3cc(F)c(C(=O)N(C)c4ccc(Cl)cc4)cn23)cc1 [Compound 42, methyl N-[4-[6-[(4-chlorophenyl)-methyl-carbamoyl]-7-fluoro-imidazo[1,2-a]pyridin-3-yl]phenyl]carbamate] | ≥ 80
COC(=O)Nc1ccc(-c2cnc3ccc(C(=O)N(C)c4ccnc(C)c4)cn23)cc1 [Compound 12, methyl N-[4-[6-[methyl-(2-methyl-4-pyridyl)carbamoyl]imidazo [1,2-a]pyridin-3-yl]phenyl]carbamate] | ≥ 80
COC(=O)Nc1ccc(-c2cnc3ccc(C(=O)N(CC4CC4)c4ccc(Cl)cc4)cn23)cc1 [Compound 28, methyl N-[4-[6-[(4-chlorophenyl)-(cyclopropylmethyl)carbamoyl]imidazo[1,2-a]pyridin-3-yl]phenyl]carbamate] | ≥ 80
CN(C(=O)c1ccc2ncc(-c3ccc(NC(=O)C4CC4)nc3)n2c1)c1ccc(F)cc1 [Compound 165, 3-[6-(cyclo-propanecarbonylamino)-3-pyridyl]-N-(4-fluorophenyl)-N-methyl-imidazo[1,2-a]pyridine-6-carboxamide] | ≥ 80
COC(=O)Nc1ccc(-c2cnc3ccc(C(=O)N(C)c4ccc(F)nc4)cn23)cn1 [Compound 60, methyl N-[5-[6-[(6-fluoro-3-pyridyl)-methyl-carbamoyl]imidazo[1,2-a]pyridin-3-yl]-2-pyridyl]carbamate] | ≥ 80
COC(=O)Nc1ccc(-c2cnc3ccc(C(=O)N(C)c4ccc(OC(F)F)cc4)cn23)cn1 [Compound 66, methyl N-[5-[6-[[4-(difluoromethoxy)phenyl]-methyl-carbamoyl]imidazo[1,2-a]pyridin-3-yl]-2-pyridyl]carbamate] | ≥ 80
COC(=O)Nc1ccc(-c2cnc3ccc(C(=O)N(C)c4ccc(C(C)=O)cc4)cn23)cn1 [Compound 104, methyl N-[5-[6-[(4-acetylphenyl)-methyl-carbamoyl]imidazo[1,2-a]pyridin-3-yl]-2-pyridyl]carbamate] | ≥ 80
COC(=O)Nc1ccc(-c2cnc3ccc(C(=O)N(CC(F)(F)F)c4ccc(Cl)cc4)cn23)cc1 [Compound 29, methyl N-[4-[6-[(4-chlorophenyl)-(2,2,2-trifluoroethyl)carbamoyl]imidazo [1,2-a]pyridin-3-yl]phenyl]carbamate] | ≥ 80
COC(=O)Nc1ccc(-c2cnc3ccc(C(=O)N(C)c4ccc(Cl)c(C(F)(F)F)c4)cn23)cn1 [Compound 121, methyl N-[5-[6-[[4-chloro-3-(trifluoromethyl)phenyl]-methyl-carbamoyl]imidazo[1,2-a]pyridin-3-yl]-2-pyridyl]carbamate] | ≥ 80
CCCN(C(=O)c1ccc2ncc(-c3ccc(NC(=O)OC)cc3)n2c1)c1ccc(Cl)cc1 [Compound 30, methyl N-[4-[6-[(4-chlorophenyl)-propyl-carbamoyl]imidazo[1,2-a]pyridin-3-yl]phenyl]carbamate] | ≥ 80
COC(=O)CN(C(=O)c1ccc2ncc(-c3ccc(NC(=O)OC)nc3)n2c1)c1ccc(F)c(OC)c1 [Compound 91, methyl 2-(4-fluoro-3-methoxy-N-[3-[6-(methoxycarbonyl-amino)-3-pyridyl]imidazo[1,2-a]pyridine-6-carbonyl]anilino)acetate] | ≥ 80
